Earlier results, collected in publication PMC3738054 (Journal of immunology (Baltimore, Md. : 1950), 2013).

System: cerebral malaria
Conditions: oral inhibitor, murine model of cerebral malaria

c1cc(-c2nc3ccc(OCCCN4CCCC4)cc3o2)ccc1OCCCN1CCCC1 [E6446]
efficacy in mitigating inflammatory injury: has shown efficacy
